Assay results taken from patent US9540691B2, “Assays and methods for selecting a treatment regimen for a subject with depression” (THE GENERAL HOSPITAL CORPORATION, priority 2011, dated 2017).
Read-outs that look alike come from different tables or passages of the source.

Legend:
[1] = tested on: remitters with MDD at end of double-blind phase; conditions: for Relapsers (HAM-D-17 > 15) during 12-month maintenance phase: 15 mg/day 6(S)-5-MTHF as an adjuvant
Description: During each visit, patients are administered the HAM-D-28, the CGI, the QIDS-SR, the SAFTEE-SI, the MGH-CPFQ, and the MGH-SFQ (See, e.g., Table 10 below). […] Subjects are also allowed to change their antidepressant during the course of the follow-up, if deemed appropriate. For patients who refuse the 12 months of free follow-up care, a referral to a psychiatrist is offered.

[2] = tested on: patients with major depressive disorder (MDD) resistant to treatment with SSRIs
From the text: Using the sequential parallel design […] For those randomly assigned to the placebo/placebo sequence, both responders and non-responders to placebo during the first phase (n=25) remain on placebo during the second phase. […] Data from the previous double-blind, placebo-controlled study (Trial 1) can be pooled into the instant study (Trial 2) to provide a more accurate estimate of the placebo effect size, with a weighted average from the two Phases 1 (one from Trial 1 and one from Trial 2) and two Phases 2 (one from Trial 1 and one from Trial 2).
Once patients agree to participate in the study by signing the informed consent document, a full medical and psychiatric history is taken and a physical examination is performed. Screen rating scales are performed. […] The double-blind treatment lasts 60 days, during which patients are seen every 10 days (Visits 1 to 6 of Phase 1—See Table 4 below). Subjects are assigned randomization numbers in consecutive order. The randomization list is provided by a computer-generated random-number list and is maintained by the research pharmacist. In addition, the presence of any side effect or adverse event is carefully documented with the SAFTEE-SI [54]. Reasons for premature discontinuation, including intolerable side effects, are recorded.
All patients are asked to take one tablet of blinded study medication in the morning, in addition to their stable dose of ongoing SSRI treatment. […] Therefore, for patients randomly assigned to the placebo/placebo sequence, the tablets of study medication are placebo during both phases of the study.
The primary efficacy measure can include the change in 17-item Hamilton Rating Scale for Depression (HAM-D-17) score. […] A remission is, for example, defined as a HAM-D-17 score less than 8 at endpoint. Secondary measures of efficacy can include change in CGI-severity, with “clinical response defined” as CGI-S of 1 or 2 at endpoint. Patients with a CGI-I score greater than 5 at any post baseline visit or a 50 percent or greater worsening of depressive symptoms from baseline to that visit are discontinued from the study. Subjects are also discontinued from the study with any emergence of suicidality, homicidality, mania, or psychosis. Additional exemplary instruments that can be administered according to the study schedule include the following: • (1) Structured Clinical Interview for DSM-IV: The SCID-I/P, administered by the clinician, proceeds by modules to diagnose the different Axis I disorders. Questions are asked exactly as written, and each is based on the individual criteria from DSM-IV. Answers are generally rated on a scale of 1-3 (1=doubtful, 2=probable, 3=definite), and, based on the number of positive answers, a diagnosis is determined by a clinician. While the entire SCID-UP is administered at screen, the mood module is administered at each follow up visit. • (2) The MGH Antidepressant Treatment History Questionnaire (MGH-ATR): The MGH-ATR provides specific criteria for the adequate dose and adequate length of a trial for it to be considered a failure, thus allowing clinicians to systematically collect data aimed at assessing the degree of treatment-resistance of the current major depressive episode. • (3) The 28-item Hamilton Depression Scale (HAM-D-28): This version allows scoring of the HAM-D-17, 21-, 25-, and 28-item scales. This instrument is completed by the clinician by using a structured interview and defined anchor points, and aims to quantify the degree of depression over the past 7 days. The HAM-D is the most widely studied instrument for depression, and its reliability and validity are high. • (4) Clinical Global Impressions-Severity and Improvement (CGI-S, CGI-I): These two instruments are scored 1-7 by the clinician based on assessment of the patient's clinical status. They measure, based on history and scores on other instruments: a) Depressive severity (CGI-S) and b) Clinical Improvement (CGI-I). […] Safety Measurements […]

[3] = 15 mg/day adjunct to SSRI, Phase 1
[4] = 15 mg/day adjunct to SSRI, Phase 2 (Phase 1 completers/non-responders only)
[5] = 15 mg/day adjunct to SSRI, pooled Phases 1 and 2 (SPCD)

CN1c2c(nc(N)[nH]c2=O)NC[C@@H]1CNc1ccc(C(=O)N[C@@H](CCC(=O)O)C(=O)O)cc1 [6(S)-5-MTHF, 6(S)-5-methyltetrahydrofolate]
Relapsers (HAM-D-17 > 15) during 12-month maintenance phase ([1]; Trial 1 remitters (2 entering)): 0 | Relapsers (HAM-D-17 > 15) during 12-month maintenance phase ([1]; Trial 2 remitters (9 entering)): 0 | relapse during 12-month maintenance phase (in words) ([1]; remitters at end of double-blind phase, adjunctive 15 mg/day): did not have a relapse | CGI-S Mean score reduction (SD) [2, 3]: −1.3 (0.9) | HDRS-17 % Remission [2, 3]: 15.7% (3) | HDRS-17 % Response [2, 3]: 38.8% (7) | HDRS-17 Mean score reduction (SD) [2, 3]: −7.5 (5.0) | QIDS-SR % Remission [2, 3]: 21.0% (4) | QIDS-SR % Responsive [2, 3]: 36.8% (7) | QIDS-SR Mean score reduction (SD) [2, 3]: −8.1 (5.3) | CGI-S Mean score reduction (SD) [2, 4]: −0.5 (1.0) | HDRS-17 % Remission [2, 4]: 11.1% (2) | HDRS-17 % Response [2, 4]: 27.7% (5) | HDRS-17 Mean score reduction (SD) [2, 4]: −3.8 (6.2) | QIDS-SR % Remission [2, 4]: 8.5% (1) | QIDS-SR % Responsive [2, 4]: 11.1% (2) | QIDS-SR Mean score reduction (SD) [2, 4]: −1.3 (4.9) | CGI-S Mean score reduction [2, 5]: −0.92 | QIDS-SR % Remission [2, 5]: 12.3% | QIDS-SR % Responsive [2, 5]: 23.9% | QIDS-SR Mean score reduction [2, 5]: −4.7 | response rate (50% or greater reduction in HAM-D-17) vs placebo group (in words) ([2]; SSRI + 15 mg/day, after 30 days, SPCD, FIG. 3A): higher | reduction in scores of HAM-D-17, QIDS-SR and CGI-S vs placebo group (in words) ([2]; SSRI + 15 mg/day, after 30 days, SPCD, FIG. 3B): greater degree of reduction | percentage of remitters (HAM-D-17 <8 or QIDS-SR ≦5) vs placebo (in words) ([2]; SSRI + 15 mg/day, after 30 days, FIGS. 3C-3D): no significant difference
